Measurements taken from ChEMBL document CHEMBL1201862, “PubChem BioAssay data set” (2004).
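Dose response: 5 concentrations. Exposure: 48 h. Format: 96-well plates. Endpoint: linear interpolation; highest concentration if not reached. GI50 marks 50% less growth.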 Activity calls are given as the source filed them. No stated cut-off is given here; in the data, active = GI50 up to about 1.1 µM and inactive = higher.

Experiments:
Assay in all cases: DTP human tumour cell line panel, 48 h
[1] = system: SF-295
[2] = system: NCI-H522
[3] = system: SW-620
[4] = system: HCC 2998
[5] = system: SN12C
[6] = system: NCI/ADR-RES
[7] = system: RPMI-8226
[8] = system: TK-10
[9] = system: BT-549
[10] = system: OVCAR-4
[11] = system: NCI-H460
[12] = system: SNB-19
[13] = system: HOP-62
[14] = system: SK-MEL-5
[15] = system: OVCAR-3
[16] = system: MCF7
[17] = system: COLO 205
[18] = system: IGROV-1
[19] = system: CAKI-1

Measured: GI50

COC(=O)[C@]1(CCC(C)=O)C(=O)C=CN([C@H](C)c2ccccc2)[C@@H]1Cc1ccc(OC)c(OCc2ccccc2)c1I
inactive: [1] 17.7 µM | [2] 20 µM | [3] 32.9 µM | [4] 14.2 µM | [5] 18 µM | [6] 29.2 µM | [7] 14.7 µM | [8] 21.5 µM | [9] 24.1 µM | [10] 19.3 µM | [11] 15.9 µM | [12] 22.5 µM | [13] 22.8 µM | [14] 13.9 µM | [15] 16.8 µM | [16] 19.2 µM | [17] 17.9 µM | [18] 12.6 µM | [19] 29.2 µM

Cc1sc2nc3n(c(=O)c2c1C)N=C(c1ccccc1)CS3
inactive: [1] 45.4 µM | [2] > 100 µM | [3] > 100 µM | [4] > 100 µM | [5] > 100 µM | [6] > 100 µM | [7] > 100 µM | [8] > 100 µM | [9] > 100 µM | [10] > 100 µM | [11] > 100 µM | [13] 48.3 µM | [14] > 100 µM | [15] > 100 µM | [16] > 100 µM | [17] > 100 µM | [18] > 100 µM | [19] > 100 µM

OCC1CCCCN1Cc1nc2cc(Cl)ccc2[nH]1 (stereo not given)
inactive: [1] > 100 µM | [2] > 100 µM | [3] > 100 µM | [4] > 100 µM | [5] > 100 µM | [6] > 100 µM | [7] > 100 µM | [8] > 100 µM | [9] > 100 µM | [10] > 100 µM | [11] > 100 µM | [12] > 100 µM | [13] > 100 µM | [14] > 100 µM | [15] > 100 µM | [16] > 100 µM | [17] > 100 µM | [18] > 100 µM | [19] > 100 µM

Oc1[nH]c(Nc2ccc(Cl)cc2)nc2ncnc1-2
inactive: [1] > 100 µM | [2] 90.8 µM | [3] > 100 µM | [4] 98.6 µM | [5] > 100 µM | [6] > 100 µM | [7] > 100 µM | [8] > 100 µM | [9] > 100 µM | [10] 64.7 µM | [11] > 100 µM | [12] 33.1 µM | [13] > 100 µM | [14] > 100 µM | [15] > 100 µM | [16] > 100 µM | [17] > 100 µM | [18] > 100 µM | [19] > 100 µM

O=c1c(Br)c(-c2ccccc2)[s+]([O-])c2ccccc12 (stereo not given)
inactive: [1] 17.9 µM | [2] 1.68 µM | [3] 16.7 µM | [4] 14.6 µM | [5] 15.6 µM | [6] 16.7 µM | [7] 1.61 µM | [8] 18.2 µM | [9] 17.9 µM | [10] 1.59 µM | [11] 17.9 µM | [12] 18.2 µM | [13] 2.43 µM | [14] 11.5 µM | [15] 10.4 µM | [16] 2.96 µM | [17] 1.89 µM | [18] 10.1 µM | [19] 9.12 µM

O=S1(=O)c2ccccc2C(=NO)c2ccccc21
inactive: [1] > 100 µM | [2] 37.1 µM | [3] > 100 µM | [4] > 100 µM | [5] 92.9 µM | [6] 57.3 µM | [7] 59.4 µM | [8] > 100 µM | [9] 59.2 µM | [10] > 100 µM | [11] > 100 µM | [13] > 100 µM | [14] 70.3 µM | [15] 39.7 µM | [16] > 100 µM | [17] > 100 µM | [18] 64 µM | [19] > 100 µM

Cc1nc(Nc2ccccc2Cl)sc1C(=O)CC(=O)C(N)=O
inactive: [1] 34.8 µM | [2] 1.96 µM | [3] 29 µM | [4] 51.4 µM | [5] 37.8 µM | [6] 31.3 µM | [7] 26.3 µM | [8] > 100 µM | [9] > 100 µM | [10] > 100 µM | [11] 32.6 µM | [12] 41 µM | [13] > 100 µM | [15] > 100 µM | [16] 29.3 µM | [17] 21.2 µM | [18] 39.3 µM | [19] > 100 µM

O=C1/C(=C/c2cccc(Cl)c2)CCCc2ccccc21
inactive: [1] 17.5 µM | [2] 14.5 µM | [3] 16.9 µM | [4] 17.2 µM | [5] 18.2 µM | [6] 18.4 µM | [7] 8.26 µM | [8] 18 µM | [9] 19.7 µM | [10] 15.8 µM | [11] 15.7 µM | [12] 14.9 µM | [13] 21.6 µM | [15] 23.7 µM | [16] 6.03 µM | [17] 20.5 µM | [18] 15.4 µM | [19] 24.1 µM

CC1OC(OC2C(O)C(O)C(O)C(O)C2O)C(N)CC1NC(=N)C(=O)O (stereo not given)
inactive: [1] > 100 µM | [2] > 100 µM | [3] > 100 µM | [4] > 100 µM | [5] > 100 µM | [6] > 100 µM | [7] > 100 µM | [8] > 100 µM | [9] > 100 µM | [10] > 100 µM | [11] > 100 µM | [12] > 100 µM | [13] > 100 µM | [14] > 100 µM | [15] > 100 µM | [16] > 100 µM | [17] > 100 µM | [18] > 100 µM | [19] > 100 µM

O=[N+]([O-])c1ccc(C2ON=C(c3ccccc3)N2C23CC4CC(CC(C4)C2)C3)cc1 (stereo not given)
inactive: [1] > 10 µM | [2] > 10 µM | [3] > 10 µM | [4] > 10 µM | [5] > 10 µM | [6] > 10 µM | [7] > 10 µM | [8] > 10 µM | [9] > 10 µM | [10] > 10 µM | [11] > 10 µM | [12] > 10 µM | [13] > 10 µM | [14] > 10 µM | [15] > 10 µM | [16] > 10 µM | [17] > 10 µM | [18] > 10 µM | [19] > 10 µM

C#C[C@]1(O)CC[C@H]2[C@@H]3CCc4cc(OC(=O)c5cccc6cc7ccccc7nc56)ccc4[C@H]3CC[C@@]21C
inactive: [2] 15.5 µM | [3] 29.7 µM | [4] 29.4 µM | [5] 20.9 µM | [6] 28.8 µM | [7] 22 µM | [9] 74 µM | [10] 38.4 µM | [11] 23 µM | [12] 50.7 µM | [13] 38.2 µM | [14] 13.6 µM | [15] 21.4 µM | [16] 25.2 µM | [17] 11 µM | [18] 14.6 µM | [19] 23 µM

CN[C@H]1CC[C@]23C[C@]24CC[C@]2(C)[C@@H]([C@H](C)N(C)C)CC[C@@]2(C)[C@@H]4CC[C@H]3C1(C)C
inactive: [1] 14.6 µM | [2] 17.2 µM | [3] 15.4 µM | [4] 13.4 µM | [5] 14.3 µM | [6] 18.5 µM | [7] 12.9 µM | [8] 18.3 µM | [9] 12.7 µM | [10] 17.7 µM | [11] 18.2 µM | [12] 16.7 µM | [14] 15.1 µM | [15] 14.3 µM | [16] 15.6 µM | [17] 12.1 µM | [18] 16.8 µM | [19] 21.9 µM

COc1ccc(-n2c(N)c(C#N)c(C#N)c2-c2cccc([N+](=O)[O-])c2)cc1
inactive: [1] 42.5 µM | [2] > 100 µM | [3] > 100 µM | [4] > 100 µM | [5] > 100 µM | [6] > 100 µM | [7] 5.37 µM | [8] > 100 µM | [9] > 100 µM | [10] 26.5 µM | [12] 49.8 µM | [13] 67.5 µM | [14] 22.9 µM | [15] > 100 µM | [16] 61.5 µM | [17] > 100 µM | [18] 23.8 µM | [19] > 100 µM

Cc1cn(C2CC(N=[N+]=[N-])C(CO)O2)c(=O)n(CCCCBr)c1=O (stereo not given)
inactive: [1] > 100 µM | [2] > 100 µM | [3] > 100 µM | [4] 65.5 µM | [5] 59.3 µM | [6] 63.8 µM | [7] 50.7 µM | [8] > 100 µM | [9] > 100 µM | [10] > 100 µM | [11] > 100 µM | [12] > 100 µM | [13] > 100 µM | [15] 40.9 µM | [16] 60.5 µM | [17] > 100 µM | [18] > 100 µM | [19] > 100 µM

CC(C)=CC[C@]12CCN(C)[C@H]1N(S(=O)(=O)c1ccccc1)c1ccccc12
inactive: [1] > 54.7 µM | [2] 15.8 µM | [3] > 60.3 µM | [4] > 40.1 µM | [5] > 62.2 µM | [6] > 82.8 µM | [7] 29.9 µM | [8] > 55.5 µM | [9] > 56.5 µM | [10] 43.6 µM | [11] > 40.4 µM | [12] > 20.3 µM | [13] > 45.4 µM | [14] 11.9 µM | [15] > 41 µM | [16] > 42.8 µM | [18] > 56.9 µM | [19] > 25.6 µM
